This note sets out measurements from patent US8709398B2, “Probiotic Bifidobacterium strains” (Alimentary Health Limited, priority 2007, dated 2014).

This test deals with B. longum AH1205. Briefly: Antibiotic sensitivity, minimum inhibitory concentration (MIC). The following applies: against B. longum AH1205. The test is classed as cell-based, Bifidobacterium longum.
Regarding `CCC[C@@H]1C[C@@H](C(=O)N[C@@H]([C@H]2O[C@H](SC)[C@H](O)[C@@H](O)[C@H]2O)[C@H](C)Cl)N(C)C1` [clindamycin], the “minimum inhibitory concentration (MIC)” value was found to be 0.032.

Turning to `Cc1ncc([N+](=O)[O-])n1CCO` [metronidazole], the “minimum inhibitory concentration (MIC)” value was over 256.

On to `CN[C@H](CC(C)C)C(=O)N[C@H]1C(=O)N[C@@H](CC(N)=O)C(=O)N[C@H]2C(=O)N[C@H]3C(=O)N[C@H](C(=O)N[C@H](C(=O)O)c4cc(O)cc(O)c4-c4cc3ccc4O)[C@H](O)c3ccc(c(Cl)c3)Oc3cc2cc(c3O[C@@H]2O[C@H](CO)[C@@H](O)[C@H](O)[C@H]2O[C@H]2C[C@](C)(N)[C@H](O)[C@H](C)O2)Oc2ccc(cc2Cl)[C@H]1O` [vancomycin], for which the “minimum inhibitory concentration (MIC)” value is 0.75.
